Drawing on article PMC8815882, “Screening the pandemic response box identified benzimidazole carbamates, Olorofim and ravuconazole as promising drug candidates for the treatment of eumycetoma” (PLoS Neglected Tropical Diseases, 2022), this text covers activity and Percent fungal survival for 16 compounds.

The test system of this test is M. mycetomatis genome strain MM55. As to the kind of experiment: CLSI M38-A2 based in vitro susceptibility screening (XTT or resazurin), growth at fixed concentration. Format: cell-based, Madurella mycetomatis. To be noted: Madurella mycetomatis; for Percent fungal survival at 100 µM: read-out: Percentage survival at 100um, 100 uM A (second replicate column). (In general: Formazan colour is commonly taken as a measure of viable cells.)

The mark [1] stands for this setting: 25 uM, mean of three replicates, read-out: Percentage survival at 25um, 25 uM mean.
Where [2] appears, read: 25 uM, replicate A, read-out: Percentage survival at 25um, 25 um A.
Where [3] appears, read: 25 uM, replicate B, read-out: Percentage survival at 25um, 25 uM B.
The mark [4] stands for this setting: 25 uM, replicate C, read-out: Percentage survival at 25um, 25 uM C.
Where [5] appears, read: first replicate column, read-out: Percentage survival at 100um, 100 uM A.
The mark [6] stands for this setting: mean of three replicates, read-out: Percentage survival at 100um, 100 uM mean.
Where [7] appears, read: second replicate column, read-out: Percentage survival at 100um, 100 uM A.
The mark [8] stands for this setting: third replicate column, read-out: Percentage survival at 100um, 100 uM A.
The mark [9] stands for this setting: 25 uM, mean of replicates, read-out: Percentage survival at 25um, 25 uM mean.
Setting [10] is: mean of replicates, read-out: Percentage survival at 100um, 100 uM mean.
Setting [11] is: replicate 1, read-out: Percentage survival at 100um, 100 uM A.
[12] abbreviates: replicate 2, read-out: Percentage survival at 100um, 100 uM A.
Where [13] appears, read: replicate 3, read-out: Percentage survival at 100um, 100 uM A.
Setting [14] is: 25 uM, mean of three, M. mycetomatis MM55, read-out: Percentage survival at 25um, 25 uM mean.
[15] abbreviates: 25 uM, replicate A, M. mycetomatis MM55, read-out: Percentage survival at 25um, 25 um A.
Setting [16] is: 25 uM, replicate B, M. mycetomatis MM55, read-out: Percentage survival at 25um, 25 uM B.
[17] abbreviates: 25 uM, replicate C, M. mycetomatis MM55, read-out: Percentage survival at 25um, 25 uM C.
[18] abbreviates: mean of three, M. mycetomatis MM55, read-out: Percentage survival at 100um, 100 uM mean.
The mark [19] stands for this setting: replicate 1, M. mycetomatis MM55, read-out: Percentage survival at 100um, 100 uM A (first replicate column).
Where [20] appears, read: replicate 2, M. mycetomatis MM55.
Where [21] appears, read: replicate 3, M. mycetomatis MM55, read-out: Percentage survival at 100um, 100 uM A (third replicate column).
Where [22] appears, read: 25 uM, mean, read-out: Percentage survival at 25um, 25 uM mean.
[23] abbreviates: mean, read-out: Percentage survival at 100um, 100 uM mean.
The mark [24] stands for this setting: replicate (first column), read-out: Percentage survival at 100um, 100 uM A.
The mark [25] stands for this setting: replicate (second column), read-out: Percentage survival at 100um, 100 uM A.
The mark [26] stands for this setting: replicate (third column), read-out: Percentage survival at 100um, 100 uM A.
Where [27] appears, read: replicate 1, read-out: Percentage survival at 100um, 100 uM A (first replicate column).
[28] abbreviates: replicate 3, read-out: Percentage survival at 100um, 100 uM A (third replicate column).
Setting [29] is: 25 uM, mean of replicates, MM55, read-out: Percentage survival at 25um, 25 uM mean.
[30] abbreviates: 25 uM, replicate A, MM55, read-out: Percentage survival at 25um, 25 um A.
[31] abbreviates: 25 uM, replicate B, MM55, read-out: Percentage survival at 25um, 25 uM B.
Setting [32] is: 25 uM, replicate C, MM55, read-out: Percentage survival at 25um, 25 uM C.
[33] abbreviates: mean of replicates, MM55, read-out: Percentage survival at 100um, 100 uM mean.
Where [34] appears, read: replicate 1, MM55, read-out: Percentage survival at 100um, 100 uM A.
Where [35] appears, read: replicate 2, MM55, read-out: Percentage survival at 100um, 100 uM A.
The mark [36] stands for this setting: replicate 3, MM55, read-out: Percentage survival at 100um, 100 uM A.

Where two headings read alike, the source gives them in different places.

Turning to `N#Cc1cc([N+](=O)[O-])ccc1Oc1ccccc1Cl` [MMV1580800], the activity at 25 µM is, setting by setting: under setting [1], 66.8%; under setting [2], 54.7%; under setting [3], 82.6%; under setting [4], 63.1%. Further, the activity at 100 µM is, setting by setting: under setting [5], 3.13%; under setting [6], 19.4%; under setting [7], 3.43%; under setting [8], 51.7%.
As for `Cc1cccc(CC(=O)N[C@H]2CCOC2=O)c1` [MMV1579782], the activity at 25 µM by setting is: under setting [9], 94%; under setting [2], 95.3%; under setting [3], 93.9%; under setting [4], 92.9%. Also, the activity at 100 µM is, setting by setting: under setting [10], 90.9%; under setting [11], 95.1%; under setting [12], 88.4%; under setting [13], 89.2%.
On to `CC[C@@H]1C(=O)OC[C@@H]1Cc1cncn1C` [MMV002516], for which the activity at 25 µM reads like this: under setting [9], 82.7%; under setting [2], 90.3%; under setting [3], 90.6%; under setting [4], 67.2%. Moreover, the activity at 100 µM is, setting by setting: under setting [10], 73.8%; under setting [11], 82.4%; under setting [12], 85%; under setting [13], 53.9%.
Consider `CCCC(=O)OCCc1ccccc1` [MMV1578899], for which the activity at 25 µM runs as follows: under setting [14], 85.3%; under setting [15], 87.9%; under setting [16], 88.2%; under setting [17], 79.8%. The activity at 100 µM was 87.4% under setting [18], 89.3% under setting [19] and 84.5% under setting [21]. Further, the Percent fungal survival at 100 µM under setting [20] came out at 88.3%.
Regarding `OC1O[C@H](CSc2ccc(F)cc2)[C@@H](O)[C@H]1O` (some centres unmarked) [MMV1581550], the activity at 25 µM was 91% under setting [14], 97.5% under setting [15], 90.1% under setting [16] and 85.4% under setting [17]. Besides, the activity at 100 µM under setting [18] is 85.6%, the activity at 100 µM under setting [19] was 80.9% and the activity at 100 µM under setting [21] came to 83.9%. Besides, the Percent fungal survival at 100 µM under setting [20] was 92.1%.
As for `NC1(C(=O)O)CCP(=O)(O)CC1` (centres unmarked) [MMV1593538], the activity at 25 µM is, setting by setting: under setting [2], 56.1%; (read-out: Percentage survival at 25um, 25 uM B) 68.9%; (read-out: Percentage survival at 25um, 25 uM C) 67%; (read-out: Percentage survival at 25um, 25 uM mean) 64%. In addition, the activity at 100 µM is, setting by setting: under setting [10], 65.8%; under setting [11], 72.6%; under setting [12], 66.4%; under setting [13], 58.5%.
As for `O=C(CCc1ccc2c(c1)OCO2)NCc1ccc(-c2ccccc2F)cc1` [MMV1782110], the activity at 25 µM by setting is: under setting [22], 78.7%; under setting [2], 102%; under setting [3], 62.1%; under setting [4], 71.9%. The activity at 100 µM under setting [23] is 77.4%, the activity at 100 µM under setting [24] came out at 79%, the activity at 100 µM under setting [25] worked out at 73.6% and the activity at 100 µM under setting [26] came out at 79.5%.
On to `COc1ccc(CNC(=O)C(NS(=O)(=O)c2ccc3nc(C)sc3c2)C(C)C)cc1` (centres unmarked) [MMV303733], for which the activity at 25 µM by setting is: under setting [1], 91.8%; under setting [2], 74.6%; under setting [3], 73.6%; under setting [4], 127%. The activity at 100 µM runs as follows: under setting [6], 75.7%; under setting [27], 82.2%; under setting [28], 67.5%. For the same compound, for the setting “replicate 2”, the Percent fungal survival at 100 µM stood at 77.4%.
Regarding `CC(C)/N=c1\cc2n(-c3ccc(Cl)cc3)c3ccccc3nc-2cc1Nc1ccc(Cl)cc1` [MMV687800], the activity at 25 µM is, setting by setting: under setting [14], 71%; under setting [15], 77.2%; under setting [16], 68.8%; under setting [17], 67.2%. In addition, the activity at 100 µM runs as follows: under setting [18], 71.4%; under setting [19], 65.1%; under setting [21], 73.9%. Under setting [20], the Percent fungal survival at 100 µM came to 75.2%.
On to `NC(=O)c1ccc(I)c([N+](=O)[O-])c1` [MMV1581035], for which the activity at 25 µM reads like this: under setting [1], 97.6%; under setting [2], 97.2%; under setting [3], 103%; under setting [4], 92.5%. Further, the activity at 100 µM came to 89.6% under setting [5], 90.1% under setting [6], 93.1% under setting [7] and 87.5% under setting [8].
As to `CC(Cc1ccccc1)C(=O)Nc1ccc(Cl)cc1C(=O)O` (centres unmarked) [MMV1579781], the activity at 25 µM under setting [1] came to 92.5%, the activity at 25 µM under setting [2] was 104%, the activity at 25 µM under setting [3] came out at 93.1% and the activity at 25 µM under setting [4] was 80.7%. Moreover, the activity at 100 µM under setting [6] was 85.9%, the activity at 100 µM under setting [27] was found to be 87.4% and the activity at 100 µM under setting [28] came out at 88.1%. Where the note is “replicate 2”, the Percent fungal survival at 100 µM came out at 82.1%.
For the compound `COc1ccc(C)cc1NC(=O)c1ccc(S(=O)(=O)N2CCCCC2)cc1` [MMV1578579], the activity at 25 µM is 72.2% under setting [14], 96.4% under setting [15], 63% under setting [16] and 57.3% under setting [17]. Moreover, the activity at 100 µM amounted to 71.4% under setting [18], 69.7% under setting [19] and 67.5% under setting [21]. Further, the Percent fungal survival at 100 µM under setting [20] was 77.1%.
As to `C[C@@H](O)[C@H](N)C(=O)NS(=O)(=O)c1cccc(-c2ccc3[nH]ncc3c2)c1` [MMV1582494], the activity at 25 µM under setting [22] turned out to be 82.4%, the activity at 25 µM under setting [2] came to 91.3%, the activity at 25 µM under setting [3] came out at 83.3% and the activity at 25 µM under setting [4] is 72.6%. The activity at 100 µM under setting [23] is 79.4%, the activity at 100 µM under setting [24] came to 99.3%, the activity at 100 µM under setting [25] amounted to 66.8% and the activity at 100 µM under setting [26] is 72.1%.
`C[C@H](NC(CC(=O)c1ccccc1C(F)(F)F)C(=O)O)c1ccccc1` (some centres unmarked) [MMV1579778]: the activity at 25 µM runs as follows: under setting [1], 93.5%; under setting [2], 98.1%; under setting [3], 92%; under setting [4], 90.5%. Besides, the activity at 100 µM worked out at 87.3% under setting [6], 91.1% under setting [27] and 88.1% under setting [28]. The Percent fungal survival at 100 µM (replicate 2) was found to be 82.8%.
Take `O=C(O)c1cc(-c2ccc(Br)cc2)nc2ccc(Cl)cc12` [MMV247764]: the activity at 25 µM under setting [29] was found to be 73.4%, the activity at 25 µM under setting [30] was 82.6%, the activity at 25 µM under setting [31] came to 78.8% and the activity at 25 µM under setting [32] was 58.9%. For the same compound, the activity at 100 µM reads like this: under setting [33], 54.4%; under setting [34], 60.9%; under setting [35], 52.4%; under setting [36], 49.8%.
Regarding `C[C@H]1COc2c(N3CCN(C)CC3)c(F)cc3c(=O)c(C(=O)O)cn1c23` [MMV687798], the activity at 25 µM under setting [29] is 96.2%, the activity at 25 µM under setting [30] was 101%, the activity at 25 µM under setting [31] was found to be 105% and the activity at 25 µM under setting [32] turned out to be 82.9%. In addition, the activity at 100 µM was determined as 91.4% under setting [33], 97.4% under setting [34], 91.1% under setting [35] and 85.7% under setting [36].
